From PMC3237616 (Molecular Biology of the Cell, 2011)

System: PIK (PI4K; phosphatidylinositol 4-kinase)
Experiment: radiometric PtdInsP formation from […]-ATP, Lineweaver-Burk
Format: biochemical, Mus musculus
Conditions: co-substrate 32P-ATP; 25 °C; 10 min; cell homogenate; without added c-Fos

PtdIns
Km: 254 µM
